Results reported in US20240199587A1, “HETEROCYCLIC COMPOUNDS” (Hoffmann-La Roche Inc., priority 2021, published 2024).

These molecules were tested against T1, MAGL (Homo sapiens, UniProt Q99685) (assay: 2-AG assay (MAGL inhibitory activity, hydrolysis of 2-arachidonoylglycerol to arachidonic acid followed by mass spectrometry)). Conditions: 8 μM 2-arachidonoylglycerol, 15 min pre-incubation, 30 min incubation at RT, RapidFire MS readout.
T1 sequence (Q99685 1-303): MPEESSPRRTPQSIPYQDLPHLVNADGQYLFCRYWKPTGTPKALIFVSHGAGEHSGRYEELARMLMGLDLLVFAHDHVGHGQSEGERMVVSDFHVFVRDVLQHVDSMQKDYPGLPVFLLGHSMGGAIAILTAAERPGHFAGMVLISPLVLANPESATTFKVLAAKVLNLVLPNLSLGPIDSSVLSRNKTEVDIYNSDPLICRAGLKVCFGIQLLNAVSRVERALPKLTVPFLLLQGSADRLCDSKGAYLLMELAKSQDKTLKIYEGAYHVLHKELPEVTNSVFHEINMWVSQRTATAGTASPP
Format: biochemical
Summary of the method: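 Arachidonic acid released from 8 μM 2-arachidonoylglycerol was quantified by online SPE triple-quadrupole MS (negative ESI, 303.1→259.1), normalised to d8-arachidonic acid internal standard. Reaction ran 30 min at RT after 15 min RT compound pre-incubation with […] MAGL in TRIS/EDTA/Tween-20 buffer, 2.5% DMSO.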

Row | Structure (SMILES) | IC50 [nM]
1 | O=C(N1CC2(CC(n3cnc(C4CC4)n3)C2)C1)N1CC2(CN(Cc3ccc(C(F)(F)F)cc3F)C2)C1 [Example 189, [6-(3-cyclopropyl-1,2,4-triazol-1-yl)-2-azaspiro[3.3]heptan-2-yl]-[6-[[2-fluoro-4-(trifluoromethyl)phenyl]methyl]-2,6-diazaspiro[3.3]heptan-2-yl]methanone] | 0.2
2 | O=C(N1CC(Oc2ccc(C3CC3)cc2F)C1)N1CC2(CC(n3cnc(C4CC4)n3)C2)C1 [Example 190, [3-(4-cyclopropyl-2-fluoro-phenoxy)azetidin-1-yl]-[6-(3-cyclopropyl-1,2,4-triazol-1-yl)-2-azaspiro[3.3]heptan-2-yl]methanone] | 0.2
3 | N#Cc1c(OC2CN(C(=O)N3CC4(CC(n5cnc(C6CC6)n5)C4)C3)C2)cccc1C1CC1 [Example 191, 2-cyclopropyl-6-[1-[6-(3-cyclopropyl-1,2,4-triazol-1-yl)-2-azaspiro[3.3]heptane-2-carbonyl]azetidin-3-yl]oxy-benzonitrile] | 0.2
4 | CS(=O)(=O)c1cccc(CC2CC3(C2)CN(C(=O)N2CC4(CC(n5cnc(C6CC6)n5)C4)C2)C3)c1 [Example 192, [6-(3-cyclopropyl-1,2,4-triazol-1-yl)-2-azaspiro[3.3]heptan-2-yl]-[6-(3-mesylbenzyl)-2-azaspiro[3.3]heptan-2-yl]methanone] | 0.2
5 | COC(=O)C(C)(C)Cc1cccc(OC2CN(C(=O)N3CC4(CC(n5cnc(C6CC6)n5)C4)C3)C2)c1 [Example 194, methyl 3-[3-[1-[6-(3-cyclopropyl-1,2,4-triazol-1-yl)-2-azaspiro[3.3]heptane-2-carbonyl]azetidin-3-yl]oxyphenyl]-2,2-dimethyl-propanoate] | 0.3
6 | O=C(N1CC2(CC(NS(=O)(=O)c3cccc(C(F)(F)F)c3)C2)C1)N1CC2(CC(n3cnc(C4CC4)n3)C2)C1 [Example 195, N-[2-[6-(3-cyclopropyl-1,2,4-triazol-1-yl)-2-azaspiro[3.3]heptane-2-carbonyl]-2-azaspiro[3.3]heptan-6-yl]-3-(trifluoromethyl)benzen esulfonamide] | 0.4
7 | O=C(N1CCC([C@H](c2ccc(F)cc2)c2nc(C3CC3)no2)CC1)N1CC2(CC(n3cnc(C4CC4)n3)C2)C1 [Example 197, [4-[(R)-(3-cyclopropyl-1,2,4-oxadiazol-5-yl)-(4-fluorophenyl)methyl]-1-piperidyl]-[6-(3-cyclopropyl-1,2,4-triazol-1-yl)-2-azaspiro[3.3]heptan-2-yl]methanone] | 0.4
8 | O=C(N1CC(Oc2cccc(C3CC3)c2F)C1)N1CC2(CC(n3cnc(C4CC4)n3)C2)C1 [Example 198, [3-(3-cyclopropyl-2-fluoro-phenoxy)azetidin-1-yl]-[6-(3-cyclopropyl-1,2,4-triazol-1-yl)-2-azaspiro[3.3]heptan-2-yl]methanone] | 0.5
9 | O=C(N1CC2(CC(Cc3ncc(F)cc3F)C2)C1)N1CC2(CC(n3cnc(C4CC4)n3)C2)C1 [Example 199, [6-(3-cyclopropyl-1,2,4-triazol-1-yl)-2-azaspiro[3.3]heptan-2-yl]-[6-[(3,5-difluoro-2-pyridyl)methyl]-2-azaspiro[3.3]heptan-2-yl]methanone] | 0.5
10 | COC(=O)C(C)(C)c1cccc(OC2CN(C(=O)N3CC4(CC(n5cnc(C6CC6)n5)C4)C3)C2)c1 [Example 200, methyl 2-[3-[1-[6-(3-cyclopropyl-1,2,4-triazol-1-yl)-2-azaspiro[3.3]heptane-2-carbonyl]azetidin-3-yl]oxyphenyl]-2-methyl-propanoate] | 0.7
11 | O=C(N1CC(Oc2ccc(C(F)(F)F)cc2)C1)N1CC2(CC(n3cnc(C4CC4)n3)C2)C1 [Example 202, [6-(3-cyclopropyl-1,2,4-triazol-1-yl)-2-azaspiro[3.3]heptan-2-yl]-[3-[4-(trifluoromethyl)phenoxy]azetidin-1-yl]methanone] | 0.7
12 | CC(C)c1ncn(C2CC3(C2)CN(C(=O)N2CC4(CC(Cc5ccc(F)cc5F)C4)C2)C3)n1 [Example 203, [6-[(2,4-difluorophenyl)methyl]-2-azaspiro[3.3]heptan-2-yl]-[6-(3-isopropyl-1,2,4-triazol-1-yl)-2-azaspiro[3.3]heptan-2-yl]methanone] | 0.8
13 | O=C(N1CC(Oc2nccc(C3CC3)c2F)C1)N1CC2(CC(n3cnc(C4CC4)n3)C2)C1 [Example 204, [3-[(4-cyclopropyl-3-fluoro-2-pyridyl)oxy]azetidin-1-yl]-[6-(3-cyclopropyl-1,2,4-triazol-1-yl)-2-azaspiro[3.3]heptan-2-yl]methanone] | 0.8
14 | O=C(N1CC(c2ccc(N3CC(O)(C(F)(F)F)C3)nc2)C1)N1CC2(CC(n3cnc(C4CC4)n3)C2)C1 [Example 206, [6-(3-cyclopropyl-1,2,4-triazol-1-yl)-2-azaspiro[3.3]heptan-2-yl]-[3-[6-[3-hydroxy-3-(trifluoromethyl)azetidin-1-yl]-3-pyridyl]azetidin-1-yl]methanone] | 0.9
15 | O=C(N1CC(Oc2ccc(C3CC3)nc2F)C1)N1CC2(CC(n3cnc(C4CC4)n3)C2)C1 [Example 208, [3-[(6-cyclopropyl-2-fluoro-3-pyridyl)oxy]azetidin-1-yl]-[6-(3-cyclopropyl-1,2,4-triazol-1-yl)-2-azaspiro[3.3]heptan-2-yl]methanone] | 1.1
16 | O=C(N1CC2(CC(n3cnc(C4CC4)n3)C2)C1)N1CC2(C1)CN(S(=O)(=O)c1ccc(F)cc1C(F)(F)F)C2 [Example 211, (6-(3-cyclopropyl-1H-1,2,4-triazol-1-yl)-2-azaspiro[3.3]heptan-2-yl)(6-((4-fluoro-2-(trifluoromethyl)phenyl)sulfonyl)-2,6-diazaspiro[3.3]heptan-2-yl)methanone] | 1.4
17 | O=C(N1CC(c2ccc(N3CC[C@@](O)(C(F)(F)F)C3)nc2)C1)N1CC2(CC(n3cnc(C4CC4)n3)C2)C1 [Example 216] | 2

Continued by falling IC50, values first:

Row | IC50 [nM] | Structure (SMILES)
18 | 1.7 | CC(C)(C)CS(=O)(=O)NC1CC2(C1)CN(C(=O)N1CC3(CC(n4cnc(C5CC5)n4)C3)C1)C2 [Example 215, N-[2-[6-(3-cyclopropyl-1,2,4-triazol-1-yl)-2-azaspiro[3.3]heptane-2-carbonyl]-2-azaspiro[3.3]heptan-6-yl]-2,2-dimethyl-propane-1-sulfonamide]
19 | 1.6 | O=C(N1CC2(CC(n3cnc(C4CC4)n3)C2)C1)N1CC2(C1)CN(S(=O)(=O)c1cc(F)cc(F)c1)C2 [Example 213, [6-(3-cyclopropyl-1,2,4-triazol-1-yl)-2-azaspiro[3.3]heptan-2-yl]-[2-(3,5-difluorophenyl)sulfonyl-2,6-diazaspiro[3.3]heptan-6-yl]methanone]
20 | 1.5 | O=C(N1CC(c2ccc(N3CCC(O)(C(F)(F)F)C3)nc2)C1)N1CC2(CC(n3cnc(C4CC4)n3)C2)C1 (stereo not drawn) [Example 212, [6-(3-cyclopropyl-1,2,4-triazol-1-yl)-2-azaspiro[3.3]heptan-2-yl]-[3-[6-[3-hydroxy-3-(trifluoromethyl)pyrrolidin-1-yl]-3-pyridyl]azetidin-1-yl]methanone]
21 | 1.3 | O=C(N1CC(Oc2ccc(C3CC3)cn2)C1)N1CC2(CC(n3cnc(C4CC4)n3)C2)C1 [Example 210, [3-[(5-cyclopropyl-2-pyridyl)oxy]azetidin-1-yl]-[6-(3-cyclopropyl-1,2,4-triazol-1-yl)-2-azaspiro[3.3]heptan-2-yl]methanone]
22 | 1.2 | O=C(N1CC2(CC(n3cnc(C4CC4)n3)C2)C1)N1CC2(C1)CN(S(=O)(=O)c1cccc(C(F)(F)F)c1)C2 [Example 209, [6-(3-cyclopropyl-1,2,4-triazol-1-yl)-2-azaspiro[3.3]heptan-2-yl]-[2-[3-(trifluoromethyl)phenyl]sulfonyl-2,6-diazaspiro[3.3]heptan-6-yl]methanone]
23 | 1 | O=C(N1CCC(C(c2ccc(F)cc2)c2nc(C3CC3)no2)CC1)N1CC2(CC(n3cnc(C4CC4)n3)C2)C1 (stereo not drawn) [Example 207, [4-[(3-cyclopropyl-1,2,4-oxadiazol-5-yl)-(4-fluorophenyl)methyl]-1-piperidyl]-[6-(3-cyclopropyl-1,2,4-triazol-1-yl)-2-azaspiro[3.3]heptan-2-yl]methanone]
24 | 0.9 | CS(=O)(=O)c1ccc(CC2CC3(C2)CN(C(=O)N2CC4(CC(n5cnc(C6CC6)n5)C4)C2)C3)cc1 [Example 205, [6-(3-cyclopropyl-1,2,4-triazol-1-yl)-2-azaspiro[3.3]heptan-2-yl]-[6-(4-mesylbenzyl)-2-azaspiro[3.3]heptan-2-yl]methanone]
25 | 0.7 | O=C(N1CC2(CC(n3cnc(C4CC4)n3)C2)C1)N1CC2(CN(Cc3ccc(F)cc3Cl)C2)C1 [Example 201, (6-(2-chloro-4-fluorobenzyl)-2,6-diazaspiro[3.3]heptan-2-yl)(6-(3-cyclopropyl-1H-1,2,4-triazol-1-yl)-2-azaspiro[3.3]heptan-2-yl)methanone]
26 | 0.4 | O=C(N1CC2(CC(n3cnc(C4CC4)n3)C2)C1)N1CC2(CN(Cc3ccc(F)cc3C(F)(F)F)C2)C1 [Example 196, [6-(3-cyclopropyl-1,2,4-triazol-1-yl)-2-azaspiro[3.3]heptan-2-yl]-[6-[[4-fluoro-2-(trifluoromethyl)phenyl]methyl]-2,6-diazaspiro[3.3]heptan-2-yl]methanone]
27 | 0.3 | O=C(N1CC2(CC(Cc3cnc(C(F)(F)F)cn3)C2)C1)N1CC2(CC(n3cnc(C4CC4)n3)C2)C1 [Example 193, [6-(3-cyclopropyl-1,2,4-triazol-1-yl)-2-azaspiro[3.3]heptan-2-yl]-[6-[[5-(trifluoromethyl)pyrazin-2-yl]methyl]-2-azaspiro[3.3]heptan-2-yl]methanone]
